Source: patent publication US20250296916A1, “BICYCLIC PIPERAZINONES AND THERAPEUTIC USES THEREOF” (Cytokinetics, Inc., priority 2022, published 2025)
pEC50: −log10 of the molar value.

Legend:
[1] = tested on: rabbit skeletal myofibrils (approximately 90% fast fibers); assay: Activation of fast skeletal myofibrils (PUMA coupled-enzyme ATPase assay); format: biochemical; settings: concentration at which the compound increased the enzymatic activity by 40%; calcium at pCa25; PM12 buffer pH 6.8
Procedure, shortened: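 Rabbit psoas myofibrils (Triton-washed, ~90% fast fibers) at calcium giving 25% of maximal ATPase rate (pCa25). ADP regenerated via pyruvate kinase/lactate dehydrogenase coupling, NADH oxidation read as absorbance at 340 nm. Buffer 12 mM PIPES, 2 mM MgCl2, 1 mM DTT, pH 6.8.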

[2] = tested on: ankle plantarflexor muscle contractile force; assay: Rat isometric ankle plantarflexor muscle force; format: in vivo, Sprague Dawley rats; settings: estimated concentration at which muscle force is 50% of pre-dose maximum tension, 30 Hz stimulation, continuous intravenous infusion over sixty minutes, female rats
Description: Female Sprague Dawley rats were placed under a stable anesthesic plane with inhaled isoflurane (1-5%). One incision was made on the mid-thigh region of the right leg to expose the sciatic nerve. To prevent co-contraction of the ankle dorsiflexors, an additional incision was made lateral to the patella to isolate and sever the peroneal nerve. Rats were then placed on a temperature-maintained in situ muscle analysis rig (Aurora Scientific, Model 806C). The knee was immobilized in a clamp between two sharpened screws and the foot was taped to a footplate attached to a force transducer (Aurora Scientific, Ontario, Canada). Stainless steel needle electrodes (0.10 mm) were hooked around the exposed sciatic nerve. Isometric ankle plantarflexor muscle contractile force was assessed with the ankle joint at 90° flexion. A 30 Hz electrical stimulation (under supramaximal voltage conditions) was applied to the nerve and the resulting muscle force was recorded via a servomotor. A pre-dose 30 Hz force response was established as the baseline force. A pre-dose 150 Hz force response was established as the maximum isometric force. Compounds were formulated in 50% polyethylene glycol (PEG): 16% Cavitron: 10% dimethylacetamide (DMA) and administered by continuous intravenous infusion over a sixty minute period. The muscle force response to compound was measured every two minutes over the dosing period. Data were reported as an estimated EC50 value, which is the concentration at which muscle force is 50% of the pre-dose maximum tension. In Table 4, “Example Compound” refers to the compound labeled with the same number in Table 2.

SMILES | AC1.4 [1] [µM] | pEC50 [2]
CCC[C@H]1C(=O)Nc2ccccc2N1C(=O)c1cnn(C)c1 [Compound 13, (S)-4-(1-methyl-1H-pyrazole-4-carbonyl)-3-propyl-3,4-dihydroquinoxalin-2(1H)-one] | 0.13 | 4.80
CC(C)[C@H]1C(=O)Nc2cnccc2N1C(=O)c1cnn(C)c1 [Compound 88, (S)-2-isopropyl-1-(1-methyl-1H-pyrazole-4-carbonyl)-1,4-dihydropyrido[3,4-b]pyrazin-3(2H)-one] | 0.85 | 4.70
CC[C@H](C)[C@H]1C(=O)Nc2ccccc2N1C(=O)CO [Compound 109, (S)-3-((S)-sec-butyl)-4-(2-hydroxyacetyl)-3,4-dihydroquinoxalin-2(1H)-one] | 1.51 | 
CC[C@H](C)[C@H]1C(=O)Nc2ccc(F)cc2N1C(N)=O [Compound 113, (S)-2-((S)-sec-butyl)-7-fluoro-3-oxo-3,4-dihydroquinoxaline-1(2H)-carboxamide] | 2.01 | 
CC[C@H](C)[C@H]1C(=O)Nc2ccccc2N1C(=O)N(C)CCCO [Compound 115, (S)-2-((S)-sec-butyl)-N-(3-hydroxypropyl)-N-methyl-3-oxo-3,4-dihydroquinoxaline-1(2H)-carboxamide] | 2.29 | 
CC[C@H](C)[C@H]1C(=O)Nc2ccccc2N1C(=O)N1CCC[C@H](CO)C1 [Compound 116, (S)-3-((S)-sec-butyl)-4-((S)-3-(hydroxymethyl)piperidine-1-carbonyl)-3,4-dihydroquinoxalin-2(1H)-one] | 0.83 | 
CC[C@H](C)[C@H]1C(=O)Nc2ccccc2N1C(=O)N1CC(F)(F)C1 [Compound 117, (S)-3-((S)-sec-butyl)-4-(3,3-difluoroazetidine-1-carbonyl)-3,4-dihydroquinoxalin-2(1H)-one] | 1.24 | 
CC[C@H](C)[C@H]1C(=O)Nc2ccccc2N1C(=O)OC [Compound 125, methyl (S)-2-((S)-sec-butyl)-3-oxo-3,4-dihydroquinoxaline-1(2H)-carboxylate] | 1.25 | 
CC[C@H](C)[C@H]1C(=O)Nc2ccccc2N1C(=O)NC1CCN(CCO)CC1 [Compound 130, (S)-2-((S)-sec-butyl)-N-(1-(2-hydroxyethyl)piperidin-4-yl)-3-oxo-3,4-dihydroquinoxaline-1(2H)-carboxamide] | 2.13 | 

Continued, in another order:

AC1.4 [1] [µM] | SMILES | pEC50 [2]
0.23 | CC[C@H](C)[C@H]1C(=O)Nc2cnccc2N1C(=O)c1cnn(C)c1 [Compound 89, (S)-2-((S)-sec-butyl)-1-(1-methyl-1H-pyrazole-4-carbonyl)-1,4-dihydropyrido[3,4-b]pyrazin-3(2H)-one] | 4.62
1.18 | CC[C@H](C)[C@H]1C(=O)Nc2ccccc2N1C(=O)CCO [Compound 110, (S)-3-((S)-sec-butyl)-4-(3-hydroxypropanoyl)-3,4-dihydroquinoxalin-2(1H)-one] | 
2.06 | CC[C@H](C)[C@H]1C(=O)Nc2ccccc2N1C(=O)N1CC(CO)C1 [Compound 111, (S)-3-((S)-sec-butyl)-4-(3-(hydroxymethyl)azetidine-1-carbonyl)-3,4-dihydroquinoxalin-2(1H)-one] | 
1.01 | CC[C@H](C)[C@H]1C(=O)Nc2ccccc2N1C(=O)N1CC(F)C1 [Compound 112, (S)-3-((S)-sec-butyl)-4-(3-fluoroazetidine-1-carbonyl)-3,4-dihydroquinoxalin-2(1H)-one] | 
1.69 | CC[C@H](C)[C@H]1C(=O)Nc2ccccc2N1C(=O)N1CCC[C@H](O)C1 [Compound 114, (S)-3-((S)-sec-butyl)-4-((S)-3-hydroxypiperidine-1-carbonyl)-3,4-dihydroquinoxalin-2(1H)-one] | 
1.53 | CC[C@H](C)[C@H]1C(=O)Nc2ccccc2N1C(=O)N[C@H]1CCNC1 [Compound 126, (S)-2-((S)-sec-butyl)-3-oxo-N-((S)-pyrrolidin-3-yl)-3,4-dihydroquinoxaline-1(2H)-carboxamide] | 
1.3 | CC[C@H](C)[C@H]1C(=O)Nc2ccccc2N1C(=O)N[C@H]1CCN(C)C1 [Compound 129, (S)-2-((S)-sec-butyl)-N-((S)-1-methylpyrrolidin-3-yl)-3-oxo-3,4-dihydroquinoxaline-1(2H)-carboxamide] | 
2.15 | CC[C@H](C)[C@H]1C(=O)Nc2ccccc2N1C(=O)N(C)CCO [Compound 131, (S)-2-((S)-sec-butyl)-N-(2-hydroxyethyl)-N-methyl-3-oxo-3,4-dihydroquinoxaline-1(2H)-carboxamide] | 
0.64 | CC[C@H](C)[C@H]1C(=O)Nc2ccccc2N1C(=O)N[C@H]1C[C@H](O)C1 [Compound 132, (S)-2-((S)-sec-butyl)-N-((1R,3S)-3-hydroxycyclobutyl)-3-oxo-3,4-dihydroquinoxaline-1(2H)-carboxamide] | 
1.68 | CC[C@H](C)[C@H]1C(=O)Nc2ccccc2N1C(=O)N[C@H]1C[C@@H](O)C1 [Compound 133, (S)-2-((S)-sec-butyl)-N-((1s,3R)-3-hydroxycyclobutyl)-3-oxo-3,4-dihydroquinoxaline-1(2H)-carboxamide] | 
